System: male ICR mice
Experiment: 55° C. tail flick test for antinociception
Format: in vivo
Method: The mouse anti-nociception tests were conducted with male ICR mice weighing 25-35 grams using the 55° C. tail flick test. A baseline latency was taken for each mouse. Then the mice were injected with drug and tested for antinociception at various times post-injection. A ten second cut off point was used to avoid tissue damage. The percent of antinociception was calculated as ((Test latency-Control Latency)/(10-Control Latency))×100. The majority of the drugs were tested at varying dosages.
Note the in the nomenclature used in Table 2, the D-threonine residues are indicated at “t,” the “L-Ser” indicate the isomer of serine and not a second leucine, and the sugars are indicated in parenthesis at their site of attachment. The molecules have been tested for anti-nociception in the […] animal model using the standard tail flick assay. The molecules were tested for binding to the opioid receptors and for analgesic effect delivered either to the brain (ICV) or to the bloodstream (IV). Table 2 is appended to the end of this specification.

Compound: CN1CC[C@]23c4c5ccc(O)c4O[C@H]2[C@@H](O)C=C[C@H]3[C@H]1C5 [Morphine]
- IV (Mouse) (delivered to the bloodstream (i.v.)): 6.3 µmol/kg
- ICV (Mouse) IC50 (delivered to the brain (i.c.v.)): 2.7 nmol

Source: patent US20060148679A1, “Glycosolated enkephalin agents” (priority 2003, published 2006)
